Source: patent US11350582B2, “Plant varieties by application of endocides” (Stephen F. Austin State University, priority 2015, dated 2022)
Read-outs that look alike come from different tables or passages of the source.

Experiments:
S. molesta [1] = assay: Phytotoxic analysis by pipet application on upper or lower leaf surface; format: in vivo, Salvinia molesta; conditions: Salvinia molesta, topical, 72 h
Description: General Experimental Procedure: 4-Hydroxybenzoic and 3,4-dihydroxybenzoic acids and 14 of their analogs were purchased commercially. Each of 16 compounds were prepared as 5 mL experimental solutions with NANOPURE™ water at 1% concentration. A total of 102 healthy and untreated living type III plants of S. molesta (approximately 10 g in fresh weight each) were cultured and tested in 17 plastic containers (23×23 cm, 2.37 L) with six plants in each container in a greenhouse (30° C. during the day time and 20° C. at night). The first container served as the controls without any treatment, the plants in each of the other 16 containers were treated by one of the 16 testing compounds, respectively. The plants in each container were randomly classified into two groups evenly. For each plant in the first group, 10 μL of 1% experimental solution was applied by pipet on the upper surface of each blade of the six pairs of large floating leaves close to the terminal bud. For each plant in the second group, 10 μL of 1% experimental solution was applied by pipet on the lower surface of each blade of the six pairs of large floating leaves close to the terminal bud. The leaf surfaces were examined for damage and analyzed 72 hrs after the treatments.

king protea explants = conditions: MS medium culture, cited from earlier work
S. molesta [2] = assay: Field test in isolated ponds, plots on water surface and soils (Example 17); format: in vivo, Salvinia molesta; conditions: 0.5% 4-hydroxybenzoic acid; for % of Living Biomass/Total Biomass (mean ± s.d.), Type I and II Plants on Water Surface / % of Living Biomass/Total Biomass (mean ± s.d.), Type III Plants on Soils: 12 days
Description: General Experimental Procedure: The field experiments were conducted in isolated ponds in east Texas, United States. The ponds are small (each were 200-500 m^2 in size) in the hardwood forests and each was fully covered with S. molesta plants and also included least duckweed (L. minuta) and Brazillan watermeal (W. brasillensis). The area was divided by plots, each plot had 50 m^2 in area including approximately 40 m^2 of type I and II S. molesta plants on the water surface and 10 m^2 of type III S. molesta plants on soils. Each plot, except a control plot, was treated with 20 L one of the following experimental solutions by Solo 433 motorized backpack sprayer: 0.5% 4-hydroxybenzoic acid, 0.5% 4-hydroxybenzoic acid mixed with 0.25% DAWN® dish soap, 0.5% 4-hydroxybenzoic acid and 0.25% 3,4-dihydroxybenzoic acid, 0.5% 4-hydroxybenzoic acid and 0.25% 3,4-dihydroxybenzoic acid with 0.25% DAWN® dish soap, and 0.25% DAWN® dish soap. Each test condition had three replicates. 12 days after the treatments, plant growth status was photographed and the plant survival rate was measured by three 1×1 m random sample plots for floating plants on the water surface and two samples in 1×1 m random sample plots for plants on soils. Pairwise comparisons for all treatments (including Control) for living biomass were made using Tukey test at alpha=0.05, which was done using SAS (SAS 9.4).

tobacco = conditions: from root exudates of tobacco; cited from earlier work
taro = conditions: in vivo; cited from earlier work
leaf vegetables = conditions: in vivo; cited from earlier work
[3] = tested on: rhizosphere bacterial population; conditions: cited from earlier work
[4] = tested on: rhizosphere fungal populations; conditions: cited from earlier work
[5] = tested on: Fusarium oxysporum f. sp. niveum; conditions: cited from earlier work
[6] = tested on: F. oxysporum, F. nivale, Aspergillus flavus, and A. fumigatus; conditions: cited from earlier work
[7] = tested on: anthracnose pathogen and N-fixing bacteria in peanut; conditions: high concentrations; cited from earlier work
Enterbacter ludwigii = conditions: cited from earlier work
[8] = listed as 4-hydroxybenzoic acid

In the case of `O=C(O)c1ccc(O)c(O)c1` [3,4-dihydroxybenzoic acid], the pest or weed control at 1 % (S. molesta [1]; read-out: Inhibition (%) Lower leaf Application, 10 μL of 1% solution per blade, lower surface) is listed as 72.2%, the pest or weed control at 1 % (S. molesta [1]; read-out: Inhibition (%) Upper leaf Application, 10 μL of 1% solution per blade, upper surface) is listed as > 85% and the “effect on root mass of king protea explants” value (king protea explants; 100 mg/L) is listed as “increase the root mass”. For the same compound, the “effect on growth of king protea explants” value (king protea explants; 500 mg/L) was “inhibit growth” and the “impacts on root growth of king protea explants (patent's reading of the cited data)” value (king protea explants) was “no significant impacts”.

In the case of `O=C(O)c1ccc(O)cc1` [4-Hydroxybenzoic acid], the pest or weed control at 1 % (S. molesta [1]; 10 μL of 1% solution per blade, lower surface, read-out: Inhibition (%) Lower leaf Application) is reported as 100%, the pest or weed control at 1 % (S. molesta [1]; 10 μL of 1% solution per blade, upper surface, read-out: Inhibition (%) Upper leaf Application) is reported as > 85% and the “induced new growth type” value (S. molesta [2]) is reported as “primarily type I and II”. The “% of Living Biomass/Total Biomass (mean ± s.d.), Type I and II Plants on Water Surface” value (S. molesta [2]) was 34.7%, the “% of Living Biomass/Total Biomass (mean ± s.d.), Type III Plants on Soils” value (S. molesta [2]) was 14.3% and the “% of Living Biomass/Total Biomass (mean ± s.d.), Type I and II Plants on Water Surface” value (S. molesta [2]; [8]) was 34.7%. For the same compound, the “% of Living Biomass/Total Biomass (mean ± s.d.), Type III Plants on Soils” value (S. molesta [2]; [8]) was 14.3%, the “activity on growth and photosynthetic rate in tobacco” value (tobacco) was “some inhibitory activity” and the “inhibitory activity on the growth of taro” value (taro) was “weaker inhibitory activity than benzoic acid”. The “inhibitory activity in growth of some leaf vegetables” value (leaf vegetables) was “weaker than adipic acid”, the “Shannon-Wiener index, rhizosphere bacterial population” value [3] was “decrease” and the “Shannon-Wiener index, rhizosphere fungal populations” value [4] was “increase”. For the same compound, the mycelial growth [5] was “stimulate the mycelial growth”, the “hypha growth and spore proliferation” value [6] was “promote the hypha growth and spore proliferation” and the “effect on anthracnose pathogen and N-fixing bacteria” value [7] was “inhibited”. For the same compound, the “growth of Enterbacter ludwigii” value (Enterbacter ludwigii) was “stimulated the growth”.
